Results on seven compounds are retold here after PubChem BioAssay (NCI).

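Growth conditions: 96-well plates. Treatment: test compound, 48 hours, 5 concentrations. Analysis: linear interpolation between bracketing concentrations; unreached endpoints set to highest concentration. TGI: concentration producing complete growth inhibition.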

As usually defined, the TGI is the concentration at which net growth stops. Read a low TGI as more potent growth arrest.

What all share (assay): DTP human tumour cell line panel, 48 h
Assay [1] relates to ACHN renal.
The test system of assay [2] is CCRF-CEM leukemia.
Assay [3] relates to EKVX NSCLC.
The test system of assay [4] is HCT-116 colon.
The subject of assay [5] is HOP-62 NSCLC.
Assay [6] has as its system MCF7 breast.
Assay [7] has as its system MDA-MB-231 breast.
The subject of assay [8] is MDA-MB-435.
Assay [9] deals with MDA-N.
The test system of assay [10] is NCI-H460 lung.
Assay [11] concerns OVCAR-3 ovarian.
Assay [12] deals with OVCAR-4 ovarian.
For assay [13], the system named is OVCAR-5 ovarian.
Assay [14] deals with RPMI-8226 leukemia.
The subject of assay [15] is RXF 393 renal.
In assay [16] the test system is SF-539 CNS.
Assay [17] concerns SK-OV-3 ovarian.
The test system of assay [18] is SNB-19 CNS.
The test system of assay [19] is SR leukemia.
Assay [20] has as its system UO-31 renal.

On to `C=C1CCCC2[C@](C)(CC3=C(Cl)C(=O)C=C(OC)C3=O)C(C)CC[C@]12C` (stereo partly specified), for which the TGI turned out to be 10.7 µM in assay [1]; 11.6 µM in assay [2]; 5.06 µM in [3]; 6.43 µM in assay [4]; 13.5 µM in assay [5]; 6.18 µM in assay [6]. Besides, the TGI in assay [7] was determined as 16.9 µM; in assay [8], 14.2 µM; in assay [9] it was 13.7 µM; in assay [10], 19.4 µM; in assay [11], 11.9 µM; in assay [12], 14.2 µM. Also, the TGI was determined as 9 µM in [13]; 14.6 µM in [14]; 12.1 µM in assay [15]; 9.06 µM in assay [16]; 46.5 µM in assay [17]; 13.9 µM in assay [18]. Besides, the TGI stood at 13.6 µM in [19] and 5.77 µM in assay [20].
In the case of `NC(=O)C(=O)c1ncn(Cc2ccccc2)c1N`, the TGI in [1], in assay [2], in assay [3], in [4], in assay [5] and in [6] was more than 100 µM each time. For the same compound, the TGI in assay [7], in [8], in [9], in assay [10], in [11] and in assay [12] was more than 100 µM in each case. Besides, the TGI in assay [13], in [14], in assay [15], in assay [16], in assay [17] and in assay [18] was more than 100 µM throughout. Moreover, the total growth inhibition concentration (TGI) in assay [19] is more than 100 µM.
Take `c1ccc2c(CN3CCN(Cc4c[nH]c5ccccc45)CC3)c[nH]c2c1`: the concentration for total growth inhibition (TGI) in assay [1] is 40.6 µM; in assay [2] it was more than 100 µM; in assay [3], 39.4 µM; in [4] it was 28.6 µM; in [5], 31.2 µM; in assay [6] it was 36.9 µM. In addition, the concentration for total growth inhibition (TGI) in [7] was 31.2 µM; in assay [8] it was 32.4 µM; in assay [9], 29.1 µM; in assay [10], 25.3 µM; in assay [11] it was 35.6 µM; in [12], more than 100 µM. The TGI in assay [13] came out at 36.4 µM; in assay [14], 53.2 µM; in assay [15] it was 28.8 µM; in [17], 61.8 µM; in [18], 45.9 µM; in assay [19] it was 44.8 µM. The total growth inhibition concentration (TGI) in [20] stood at 27.7 µM.
Regarding `O=C(O)CSC(CC1(c2ccc(Cl)cc2)NC(=O)CS1)c1ccc(Cl)cc1` (stereo unspecified), the TGI in assay [1], in assay [2], in assay [3], in [4], in [5] and in [6] was more than 100 µM throughout. Also, the concentration for total growth inhibition (TGI) in [7], in [8], in assay [9], in assay [10], in assay [11] and in assay [12] was more than 100 µM throughout. Moreover, the concentration for total growth inhibition (TGI) in assay [13], in assay [14], in assay [16], in assay [17], in assay [18] and in assay [19] was more than 100 µM throughout. Besides, in [20], the concentration for total growth inhibition (TGI) is more than 100 µM.
Regarding `CCCC(=O)NC(Nc1cc(C)ccn1)(C(=O)OCC)C(F)(F)F` (stereo unspecified), the TGI in assay [1], in assay [2], in assay [3], in assay [4], in assay [5] and in assay [6] was more than 100 µM each time. Moreover, the TGI in [7], in assay [8], in [9], in [11], in assay [12] and in assay [13] was more than 100 µM in each case. Also, the concentration for total growth inhibition (TGI) in assay [14], in assay [15], in [16], in assay [17], in [18] and in assay [19] was more than 100 µM each time. Besides, in assay [20], the total growth inhibition concentration (TGI) was more than 100 µM.
In the case of `N#Cc1cnc(-n2[nH]c3c(c2=O)CCCC3)[nH]c1=O`, the concentration for total growth inhibition (TGI) in assay [1], in [2], in assay [3], in assay [4], in [6] and in assay [7] was more than 100 µM each time. For the same compound, the concentration for total growth inhibition (TGI) in assay [8], in [9], in [10], in [12], in assay [13] and in assay [14] was more than 100 µM in each case. Further, the total growth inhibition concentration (TGI) in [15], in [16], in assay [17], in assay [18], in assay [19] and in [20] was more than 100 µM throughout.
Consider `COc1cc(C(=O)/C=C/c2ccc(OCCSCCCCCCCCCCSCCOc3ccc(/C=C/C(=O)c4cc(OC)c(OC)c(OC)c4)cc3)cc2)cc(OC)c1OC`, for which the total growth inhibition concentration (TGI) in assay [1], in assay [2], in assay [3], in [4], in [5] and in [6] was more than 100 µM throughout. Further, the TGI in assay [7], in [8], in assay [9], in assay [11], in assay [13] and in assay [14] was more than 100 µM each time. Besides, the TGI in assay [15], in assay [16], in [18], in assay [19] and in assay [20] was more than 100 µM each time.
